Assay results: ChEMBL document CHEMBL5036332, “Glucose-Lipopeptide Conjugates Reveal the Role of Glucose Modification Position in Complexation and the Potential of Malignant Melanoma Therapy” (J Med Chem, 2021)
pIC50: −log10 of the molar value. Calls of active or inactive are those of the source. The rule behind the calls is not given here. *1 amine or outer side, *2 acyl side, *3 side chain or, on linkers, in order; H or OH if unused. Where a SMILES comes first, the peptide text is derived from it. Side-chain parts run from the residue outwards. The star is where a group is joined. NH(CH2)3O(βDGlc) = OC[C@H]1O[C@@H](OCCCN*)[C@H](O)[C@@H](O)[C@@H]1O; Glutaryl = O=C(CCCC(=O)[*:2])[*:1]; Lauroyl = CCCCCCCCCCCC(=O)*

Assays:
[1] = Toxicity in BALB/c mouse implanted in mouse B16-F10 cells assessed as pathological changes in liver at 15 mg/kg, ip administered for days by H& E staining based assay; format: organism-based; conditions: in vivo
B16-F10 [2] = assay: Antitumor activity against mouse B16-F10 cells implanted in BALB/c mouse assessed as apoptotic cells in tumor tissue at 15 mg/kg, ip administered for 12 days by TUNEL assay; format: functional, organism-based; conditions: time 12.0 day
B16-F10 [3] = assay: Induction of cell membrane disruption in mouse B16-F10 cells assessed as shrunken morphology at 5 uM incubated for 24 hrs by scanning electron microscopy; format: functional, cell-based
B16-F10 [4] = assay: Antiproliferative activity against mouse B16-F10 cells assessed as inhibition of colony formation incubated for 12 days by crystal violet dye based assay; format: functional, cell-based; conditions: B16-F10, 288 h
[5] = biological target: T1, Solute carrier family 2, facilitated glucose transporter member 1 (Homo sapiens) (UniProt P11166); assay: Induction of GLUT1-mediated HEK293T cytotoxicity assessed as cell viability at 3.125 uM incubated for 24 hrs by CCK-8 assay
T1 sequence (whole entry): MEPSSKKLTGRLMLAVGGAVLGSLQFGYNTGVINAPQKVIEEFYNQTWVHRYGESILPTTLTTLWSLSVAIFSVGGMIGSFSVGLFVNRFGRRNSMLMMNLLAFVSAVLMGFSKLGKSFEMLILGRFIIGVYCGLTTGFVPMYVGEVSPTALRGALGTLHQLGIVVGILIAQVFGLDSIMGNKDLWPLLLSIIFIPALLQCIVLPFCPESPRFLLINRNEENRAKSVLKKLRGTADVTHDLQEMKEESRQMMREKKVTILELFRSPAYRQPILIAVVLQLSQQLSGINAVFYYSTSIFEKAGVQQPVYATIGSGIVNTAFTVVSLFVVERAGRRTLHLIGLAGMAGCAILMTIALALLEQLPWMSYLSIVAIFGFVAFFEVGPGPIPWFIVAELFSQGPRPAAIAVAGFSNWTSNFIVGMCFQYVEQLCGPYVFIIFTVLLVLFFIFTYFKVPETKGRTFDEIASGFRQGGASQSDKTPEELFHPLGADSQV

Homo sapiens = species on record: Homo sapiens; assay: Binding affinity to membrane (unknown origin) assessed as binding free energy
[6] = biological target: T1, Solute carrier family 2, facilitated glucose transporter member 1 (Homo sapiens); assay: Induction of GLUT1-mediated human HeLa cell cytotoxicity assessed as cell viability at 12.5 uM incubated for 24 hrs by CCK-8 assay
[7] = Toxicity in KM mouse implanted in mouse B16-F10 cells assessed as body weight change at 10 mg/kg, iv administered for days; format: organism-based; conditions: in vivo
[8] = biological target: T1, Solute carrier family 2, facilitated glucose transporter member 1 (Homo sapiens); assay: Induction of GLUT1-mediated human A549 cell cytotoxicity assessed as cell viability at 12.5 uM incubated for 24 hrs by CCK-8 assay
B16-F10 [9] = assay: Induction of cell membrane disruption in mouse B16-F10 cells assessed as membrane permeability at 5 uM incubated for 24 hrs by trypan blue staining based light microscopy; format: functional
[10] = Toxicity in BALB/c mouse implanted in mouse B16-F10 cells assessed as body weight change at 15 mg/kg, ip administered for days; format: organism-based; conditions: in vivo
[11] = biological target: T1, Solute carrier family 2, facilitated glucose transporter member 1 (Homo sapiens); assay: Binding affinity to GLUT1 (unknown origin) assessed as binding free energy
B16-F10 [12] = assay: Antiinvasive activity against mouse B16-F10 cells assessed as inhibition of cell migration at 0.75 to 1.5 microM incubated for 72 hrs by transwell migration assay; format: functional, cell-based; conditions: dose 0.75-1.5 µM
B16-F10 [13] = assay: Antimetastatic activity against mouse B16-F10 cells implanted in KM mouse assessed as reduction lung metastatic nodules at 200 microL of 10 mg/kg, iv administered once every 2 days by H and E staining method; format: functional, organism-based; conditions: time 2.0 day
B16-F10 [14] = assay: Cytotoxicity against mouse B16-F10 cells assessed as LDH release at 3.125 to 6.25 uM incubated for 24 hrs by LDH assay; format: functional, cell-based; conditions: dose 3.125-6.25 µM
[15] = Toxicity in BALB/c mouse implanted in mouse B16-F10 cells assessed as pathological changes in spleen at 15 mg/kg, ip administered for days by H& E staining based assay; format: organism-based; conditions: in vivo
B16-F10 [16] = assay: Anti-migration activity against mouse B16-F10 cells assessed as inhibition of spheroid migration at 2.5 uM after 3 days by crystal violet staining based assay; format: functional, cell-based; conditions: time 3.0 day
B16-F10 [17] = assay: Antitumor activity against mouse B16-F10 cells implanted in KM mouse assessed as metastatic nodules in lungs at 10 mg/kg, iv administered for every 2 days measured after 9 days; format: functional, organism-based; conditions: time 9.0 day
B16-F10 [18] = assay: Cytotoxicity against mouse B16-F10 cells assessed as cell viability after 24 hrs by CCK-8 assay; format: functional, cell-based; conditions: B16-F10, 24 h
B16-F10 [19] = assay: Antiinvasive activity against mouse B16-F10 cells assessed as inhibition of cell migration at 0.75 microM incubated for 72 hrs by Matrigel based transwell invasion assay; format: functional
B16-F10 [20] = assay: Cytotoxicity against mouse B16-F10 cells assessed as inhibition of spheroid proliferation at 5 uM after 3 days by 3D-shperoid assay relative to control; format: functional, cell-based; conditions: time 3.0 day
B16-F10 [21] = assay: Cytotoxicity against GLUT1 - knocked down mouse B16-F10 cells assessed as cell viability after 24 hrs by CCK-8 assay; format: functional, cell-based
[22] = Toxicity in BALB/c mouse implanted in mouse B16-F10 cells assessed as pathological changes in heart at 15 mg/kg, ip administered for days by H& E staining based assay; format: organism-based; conditions: in vivo
B16-F10 [23] = assay: Induction of cell membrane disruption in mouse B16-F10 cells incubated for 24 hrs by SYTO 9/PI staining based fluorescence microscopy; format: functional
B16-F10 [24] = assay: Antitumor activity against mouse B16-F10 cells implanted in BALB/c mouse assessed as reduction in tumor volume at 15 mg/kg, ip administered for every 2 days; format: functional, organism-based; conditions: time 2.0 day
[25] = Stability in 10% fetal bovine serum measured after 24 hrs; format: ADME, cell-free, Bos taurus; conditions: cattle
B16-F10 [26] = assay: Induction of GLUT1-mediated mouse B16-F10 cell cytotoxicity assessed as cell viability at 3.125 uM incubated for 24 hrs by CCK-8 assay
[27] = biological target: T1, Solute carrier family 2, facilitated glucose transporter member 1 (Homo sapiens); assay: Binding affinity to GLUT1 (unknown origin) membrane assessed as free energy

| deltaG (Homo sapiens) [kJ/mol] | deltaG [11] [kJ/mol] | SMILES | Activity [1] | Activity (B16-F10 [2]) | Activity (B16-F10 [3]) | Activity [5] | Activity [6] | Activity [7] | Activity [8] | Activity (B16-F10 [9]) | Activity [10] | Activity (B16-F10 [12]) | Activity (B16-F10 [13]) | Activity (B16-F10 [14]) | Activity [15] | Activity (B16-F10 [16]) | Activity (B16-F10 [17]) | pIC50 (B16-F10 [18]) | Activity (B16-F10 [20]) | Activity [22] | other results |
| --- | --- | --- | --- | --- | --- | --- | --- | --- | --- | --- | --- | --- | --- | --- | --- | --- | --- | --- | --- | --- | --- |
| -320 | -326 | CCCCCCCCCCCC(=O)N[C@@H](CCCNC(=N)N)C(=O)NCC(=O)N[C@@H](Cc1c[nH]c2ccccc12)C(=O)N[C@@H](Cc1ccccc1)C(=O)N[C@@H](CCCNC(=N)N)C(=O)N[C@@H](C)C(=O)N[C@@H](CCSC)C(=O)N[C@@H](CCCNC(=N)N)C(=O)N[C@@H](CO)C(=O)N[C@H](C(=O)N[C@@H](C)C(=O)N[C@@H](CCCCNC(=O)CCCC(=O)NCCCO[C@@H]1O[C@H](CO)[C@@H](O)[C@H](O)[C@H]1O)C(=O)N[C@@H](Cc1ccccc1)C(=O)N[C@H](C(=O)N[C@@H](C)C(=O)N[C@@H](CCCNC(=N)N)C(=O)N[C@@H](CCC(=O)O)C(=O)N[C@@H](CCCNC(=N)N)C(=O)N[C@@H](CC(C)C)C(=O)N[C@@H](CCCNC(=N)N)C(=O)N[C@@H](CCC(=O)O)C(=O)N[C@@H](Cc1cnc[nH]1)C(=O)N[C@@H](CC(C)C)C(N)=O)[C@@H](C)CC)[C@@H](C)CC (Lauroyl-RGWFRAMRSIAK([Glutaryl-NH(CH2)3O(βDGlc)])FIARERLREHL-NH2) | Non-Toxic | Active | Active | inactive | Active | Non-Toxic | Active | Active | Non-Toxic | Active | inactive | Active | Non-Toxic | Active | Active | 5.72 | Active | Non-Toxic | pIC50 (B16-F10 [4]): 6.43; Activity (B16-F10 [19]): Active; Activity (B16-F10 [21]): inactive; Activity (B16-F10 [23]): Active; Activity (B16-F10 [24]): Active; Stability [25]: Stable; Activity (B16-F10 [26]): Active; deltaG [27]: -333 kJ/mol |
| -275 | -278 | CCCCCCCCCCCC(=O)N[C@@H](CCCNC(=N)N)C(=O)NCC(=O)N[C@@H](Cc1c[nH]c2ccccc12)C(=O)N[C@@H](Cc1ccccc1)C(=O)N[C@@H](CCCNC(=N)N)C(=O)N[C@@H](C)C(=O)N[C@@H](CCSC)C(=O)N[C@@H](CCCNC(=N)N)C(=O)N[C@@H](CO)C(=O)N[C@H](C(=O)N[C@@H](C)C(=O)N[C@@H](CCCNC(=N)N)C(=O)N[C@@H](Cc1ccccc1)C(=O)N[C@H](C(=O)N[C@@H](C)C(=O)N[C@@H](CCCNC(=N)N)C(=O)N[C@@H](CCC(=O)O)C(=O)N[C@@H](CCCNC(=N)N)C(=O)N[C@@H](CC(C)C)C(=O)N[C@@H](CCCNC(=N)N)C(=O)N[C@@H](CCC(=O)O)C(=O)N[C@@H](Cc1cnc[nH]1)C(=O)N[C@@H](CC(C)C)C(N)=O)[C@@H](C)CC)[C@@H](C)CC (HELM PEPTIDE1{[CCCCCCCCCCCC(=O)[*:2]].R.G.W.F.R.A.M.R.S.I.A.R.F.I.A.R.E.R.L.R.E.H.L.[am]}$$$$V2.0) | Non-Toxic | Active | Active | Active | Active | Non-Toxic | Active | Active | Non-Toxic | inactive | inactive | Active | Non-Toxic | Active | inactive | 5.52 | Active | Non-Toxic | Activity (B16-F10 [23]): Active; Activity (B16-F10 [24]): inactive; Stability [25]: Stable; Activity (B16-F10 [26]): Active; deltaG [27]: -282 kJ/mol |
